Results on 2 molecules are retold here after US5352815A, “Agent for suppression and interception of mailard reaction” (Asai Germanium Research Institute Co., Ltd., priority 1992, dated 1994).

Data set [1] can be described thus: Example 2: AGE formation from F-lysine (model glycosylated protein; absorbance at 420 nm) and F-lysine decomposition (HPLC). The format is biochemical. The method, then: The organogermanium compound (1-1) was added to a phosphate buffer solution containing 10 mM of Nα-t-butoxycarbonyl-Nε-fructose-L-lysine(hereinafter abbreviated to F-lysine) as a model glycosylated protein, so that the final concentration became 0, 1, 5, 10 or 50 mM. Then, incubation was conducted at 40° C. for 15 days, after which the formation of AGE was measured by browning degree (absorbance at 420 nm) and the amount of F-lysine decomposed was measured by HPLC to examine the effect of the organogermanium compound (1-1) added.

For another data set, the system named is mice. Put plainly: Acute oral toxicity in mice (LD50). Type of data set: in vivo. Conditions: oral administration. An excerpt:
(§1) The organogermanium compound (1) used in the present agent has very low toxicity. In the case of oral administration of the compound (1-1), the LD50 is 6 g or more for mice and 10 g or more for rats.

Data set [2] can be described thus: Example 1: Mailard reaction of Nα-t-Boc-lysine (model protein) with glucose; AGE formation (absorbance at 420 nm) and Nα-t-Boc-lysine consumption (HPLC). Type of data set: biochemical. As to conditions: 40° C. Here is the method:
The organogermanium compound (1-1) was added to a phosphate buffer solution (50 mM, pH 7.4) containing 50 mM of Nα-t-butoxycarbonyl-L-lysine (hereinafter abbreviated to Nα-t-Boc-lysine) as a model protein and 1M of glucose, so that the final concentration became 0, 1, 5 or 10 mM. Then, incubation was conducted at 40° C. for 15 days, after which the formation of AGE was measured by browning degree (absorbance at 420 nm) and the amount of Nα-t-Boc-lysine consumed was measured by high-performance liquid chromatography (hereinafter abbreviated to HPLC) to examine the effect of the organogermanium compound (1-1) added.

For the next data set, the system named is tail tendon collagen. Put plainly: Example 5: fluorescence of tail tendon collagen in Streptozocin-diabetic rats. The format is in vivo, Sprague-Dawley female rats. Conditions: 100 mg per kg, oral in drinking water; 14 weeks. Here is the method: (§2) Streptozocin was intravenously injected into Sprague-Dawley female rats (total 21 rats each weighing 240-270 g) in an amount of 65 mg per kg of body weight to cause diabetes. Then, the rats were divided into two groups, i.e. a control group and an administered group. An organogermanium compound (1-1) was put into drinking water and orally administered to the administered group at night in an amount of 100 mg per kg of body weight.
(§3) 14 weeks after the administration of the organogermanium compound (1-1), all the rats were killed to collect the skin of abdomen and the tendon of tail. Collagen was extracted from each skin and each tendon and treated with collagenase for solubilization. Each of the solubilized collagens was measured for fluorescence at an excitation wavelength of 370 nm and an absorption wave length of 440 nm. At the same time, hydroxyproline was measured by HPLC; a collagen amount was calculated; and the adjustment of fluorescent intensity was made using the value.

In another data set the test system is Fructosamine in serum. The experiment in a line: Example 6: serum Fructosamine in diabetes patients. The format is in vivo, human (diabetes patients). As to conditions: 750 mg/day for 2 months; 20 diabetes patients (FIG. 11). The method, then:
An organogermanium compound (1-1) was administered to 20 diabetes patients (they were diagnosed as diabetes by a 75-g grape sugar loading test) at a dose of 750 mg/day for 2 months. Fructosamine content in serum of each patient was measured before and after the administration.
Fructosamine content in serum was measured by an ordinary method, i.e. by adding a test sample or a reference (a standard Amadori rearrangement product) to a NTB solution, subjecting the mixture to incubation at 37° C., and measuring the developed color.

The next data set has as its system proteins in plasma. Put plainly: Example 4: glycation of plasma proteins in Streptozocin-diabetic rats. The format is in vivo, Sprague-Dawley female rats. As to conditions: 100 mg per kg, oral in drinking water. Here is the method: as §2
4, 8 and 14 weeks after the administration of the organogermanium compound (1-1), blood sampling was made from all the rats of the two groups in hungry state. Each blood taken was measured for blood sugar, glucohemoglobin (hereinafter abbreviated to GHb), glycated albumin (hereinafter abbreviated to GA) and Fructosamine (hereinafter abbreviated to Fru). GHb was measured by affinity chromatography using a mini column, and GA was measured by HPLC using two different columns. The body weight, amount of water taken and amount of food taken, of each rat were also recorded simultaneously.

A short description of data set [3]: Example 5: general observations in Streptozocin-diabetic rats (blood sugar, body weight, water, food). The format is in vivo, Sprague-Dawley female rats. Conditions: 100 mg per kg, oral in drinking water; 4, 8 and 14 weeks; vs control group. Here is the method: as §2
Incidentally, during the test period, i.e. 4, 8 and 14 weeks after the administration of the organogermanium compound (1-1), there was no difference in blood sugar in hungry state, body weight, amount of water taken and amount of food taken, between the two groups.

Another data set relates to abdomen skin collagen. The experiment in a line: Example 5: fluorescence of abdomen skin collagen in Streptozocin-diabetic rats. The format is in vivo, Sprague-Dawley female rats. As to conditions: 100 mg per kg, oral in drinking water; 14 weeks. Here is the method: as §2, §3
A short description of data set [4]: Example 3: decomposition of Amadori rearrangement product formed from ribose and alginine (HPLC). Type of data set: biochemical. Conditions: 40 mM solution mixed 1:1; 37° C., 24 hours, pH 7.4 (FIG. 6). The method, then:
20 mg of ribose, 20 mg of alginine and 10 ml of methanol were reacted under refluxing, in a hot bath of 60°-70° C. 10-15 minutes later, 0.1-0.3 ml of acetic acid was added and the reaction was continued for a further 5-10 minutes. Then, the reaction mixture was concentrated under reduced pressure. During the concentration, a small amount of water was added to remove acetic acid. The concentrate was dissolved in 1 ml of water and the solution was subjected to HPLC to collect an Amadori rearrangement product. The product was freeze-dried.
The freeze-dried product of the Amadori rearrangement product was suspended in 4 ml of a sodium phosphate buffer solution (pH 7.4, 0.1M). The suspension was mixed with a sodium phosphate buffer solution containing or not containing 40 mM of the organogermanium compound (1-1), at a 1:1 ratio. The mixture was incubated at 37° C. for 24 hours. Sampling of 0.1 ml was conducted with the lapse of time for immediate analysis by HPLC. When immediate analysis was impossible, the sample was freeze-storedat -20° C.

The test system of the next data set is rats. Put plainly: Acute oral toxicity in rats (LD50). The format is in vivo. As to conditions: oral administration.
From the text: as §1

With `N=C(N)NN` [aminoguanidine, reference compound], in data set [1] (compared with compound (1-1), used in its place), the “effect in the test of Example 2 (AGE formation and F-lysine consumption)” value is “substantially no effect”.

For the molecule `O=C(O)C[CH2][Ge](=[O])[O][Ge](=[O])[CH2]CC(=O)O` [compound (1-1)], the LD50 in the data set on mice was no less than 6 g; in the data set with rats it was no less than 10 g. The “suppression of the formation of AGE, concentration dependence” value in data set [2] (0, 1, 5 or 10 mM, 15 days (FIG. 1)) is listed as “suppressed the formation of AGE dependently upon the concentration”. For the same molecule, the “consumption of Nα-t-Boc-lysine (suppressed to)” value in data set [2] (10 mM, 15 days, HPLC (FIG. 2)) is given as “about 10%”. Further, the “suppression of the formation of AGE” value is “suppressed the formation substantially completely” in data set [2] (5-10 mM, 15 days, pH 7.4, absorbance at 420 nm (FIG. 1)) and “suppressed the formation of AGE substantially completely” in data set [1] (5-50 mM, 40° C., 15 days, absorbance at 420 nm (FIG. 3)). Also, in the data set with tail tendon collagen, the “fluorescence of tendon collagen vs control group” value is reported as “significantly lower”. In addition, the “Fructosamine content in serum after vs before administration” value with Fructosamine in serum was “lower after the administration”. Besides, the “Fru (Fructosamine) vs control group” value in the data set on proteins in plasma (8 weeks (FIG. 8)) is reported as “significantly lower in the administered group”. The “GA (glycated albumin) vs control group” value in the data set with proteins in plasma (14 weeks) is recorded as “significantly lower in the administered group”. Moreover, the “Fru (Fructosamine) difference vs control group” value with proteins in plasma (14 weeks, compared with 8 weeks) is “the difference was more significant in 14 weeks”. In addition, the “body weight, amount of water taken and amount of food taken” value is given as “no difference” with proteins in plasma (test period, vs control group) and “no difference” in [3]. For the same molecule, the “GHb (glucohemoglobin)” value in the data set on proteins in plasma (vs control group) is reported as “lower in the administered group”. The “blood sugar in hungry state” value (in the data set with proteins in plasma (vs control group); in data set [3]) was “no difference” in each case. Further, the “fluorescence of skin collagen vs control group” value with abdomen skin collagen was “significantly lower”. The “alginine increase and unidentified substance peak increase” value in data set [4] is listed as “substantially seen neither alginine increase nor unidentified substance peak increase”. The “decrease of the Amadori rearrangement product” value in data set [4] is on record as “very mild”. Moreover, the “consumption of F-lysine (suppressed to)” value in [1] (50 mM, 40° C., 15 days, HPLC (FIG. 4)) is “about 20%”. For the same molecule, in data set [1] (5-50 mM, 40° C., 15 days, HPLC (FIG. 4)), the “consumption of F-lysine” value was “suppressed the consumption of F-lysine”.
